Measured values published in patent EP1935986B1, “Luminogenic and fluorogenic compounds and methods to detect molecules or conditions” (priority 2005, dated 2006).

Legend:
QuantiLum Luciferase [1] = target: T1, QuantiLum Luciferase (Photinus pyralis, UniProt P08659); experiment: ATP titration of firefly luciferase reactions with luciferin and fluoroluciferins; format: biochemical; conditions: result in words
T1 construct: purchased Promega Corporation E170
Method: All compounds except 5'-fluoroluciferin and DTT were purchased from Sigma Chemical. To some of this reagent 5 mM ATP (Amersham/Invitrogen) was added, then serially diluted by half-logs to 0.05 mM. Reactions were initiated by adding equal volumes (0.1 ml) of reagent and DMEM medium (Gibco/Invitrogen) containing 0.1% Prionex® (Pentapharm) and 1.4 x 10-5 mg/ml QuantiLum™ Luciferase (Promega Corporation).
For ATP titrations for 7'-fluoroluciferin, reagent was created containing 200 mM HEPES, 200 mM PIPES, 1 mM CDTA, 0.5% Tergitol NP-9, 0.03% Benzyl dodecyldimethyl ammonium bromide, 30 mM thiourea, 10 mM magnesium sulfate, and 0.15 mM 7'-fluoroluciferin. This solution was separated into 3 parts and pH of the reagents were 7.4, 7.2 and 6.7. To some of this reagent, 10 mM ATP (Amersham/Invitrogen) was added. The ATP was serially diluted by quarter-logs from 10 mM to 0.32 mM.
Reactions were initiated by adding equal volumes (0.03 ml) of reagent and DMEM medium (Gibco/Invitrogen) containing 0.1% Prionex® (Pentapharm) and 1.4 x 10-5 mg/ml QuantiLum™ Luciferase (Promega Corporation).
Luminescence was measured for 0.5 seconds per well using Berthold Orion luminometer.

QuantiLum Luciferase [2] = target: T1, QuantiLum Luciferase; experiment: Emission spectra of luciferase reactions with luciferin, 5'-fluoroluciferin, 7'-fluoroluciferin; format: biochemical, firefly; conditions: reagent pH 7.4
Method: All compounds except fluoroluciferin and ATP were purchased from Sigma Chemical. ATP was purchased from Amersham/Invitrogen.
Spectra were measured using 0.5s integration with 1 nm increments on a Spex Fluorolog.

QuantiLum Luciferase [3] = target: T1, QuantiLum Luciferase; experiment: pH dependence of firefly luciferase luminescence with luciferin or 5'-fluoroluciferin; format: biochemical; conditions: for Absolute Luminescence: 630 µM substrate
Method: Aliquots of these solutions were then placed into tubes and buffers were added to 80 mM.
Luminescent reactions were initiated by combining 100 µl of the luciferase-containing solution and 100 µl of the luciferase detection reagents. Luminescence was integrated over 1 second per sample using the Veritas plate luminometer (Turner BioSystems). N=3 for each result.
The average luminescence measured for each set of samples is listed in Table 50 (relative standard deviation ≤ 4.0%). […]

[4] = system: panel of recombinant human P450s; experiment: Two-step luminescent P450 screen of luciferin derivatives, whole panel incl. HLM; format: biochemical; conditions: 50 µM substrate; result in words
Method: In addition, it was also of interest to identify substrates with improved selectivity for single P450 enzymes. […] Derivatives useful as P450 substrates may be employed in assays to detect inhibitors for particular P450 enzymes (see Figures 17-18).
(§1) P450s are Supersomes™ purchased from Discovery Labware (BD/Gentest). […] HLM is human liver microsomes.
(§2) 1X substrate concentration: 50 µM.

CYP4A11 = target: T2, CYP4A11 (Homo sapiens, UniProt Q02928); experiment: Two-step luminescent P450 screen of luciferin derivatives; format: biochemical; conditions: result in words
T2 construct: purchased Discovery Labware (BD/Gentest); host or cells: insect cell expression system (membrane fractions)
T2 sequence (Q02928 5-519): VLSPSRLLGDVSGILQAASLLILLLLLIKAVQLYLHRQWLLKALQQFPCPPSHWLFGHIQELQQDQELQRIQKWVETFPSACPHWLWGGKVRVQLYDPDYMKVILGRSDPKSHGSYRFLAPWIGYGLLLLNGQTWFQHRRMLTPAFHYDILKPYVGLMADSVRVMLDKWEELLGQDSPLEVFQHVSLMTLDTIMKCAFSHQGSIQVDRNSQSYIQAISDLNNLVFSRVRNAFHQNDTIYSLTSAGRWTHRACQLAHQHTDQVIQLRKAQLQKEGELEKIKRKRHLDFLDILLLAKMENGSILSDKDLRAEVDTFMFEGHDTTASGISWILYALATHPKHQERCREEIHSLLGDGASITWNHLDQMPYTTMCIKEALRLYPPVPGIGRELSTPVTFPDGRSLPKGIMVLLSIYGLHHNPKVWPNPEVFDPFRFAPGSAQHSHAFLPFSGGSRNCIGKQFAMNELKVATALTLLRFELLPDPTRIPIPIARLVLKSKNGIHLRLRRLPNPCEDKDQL
Method: as §1, §2

CYP2C9 = target: T3, CYP2C9 (Homo sapiens, UniProt P11712); experiment: as above; format: biochemical; conditions: 50 µM substrate, 1 pmole P450; result in words
T3 construct: purchased Discovery Labware (BD/Gentest); host or cells: insect cell expression system (membrane fractions)
Method: as §1, §2

T1 sequence (P08659 whole entry): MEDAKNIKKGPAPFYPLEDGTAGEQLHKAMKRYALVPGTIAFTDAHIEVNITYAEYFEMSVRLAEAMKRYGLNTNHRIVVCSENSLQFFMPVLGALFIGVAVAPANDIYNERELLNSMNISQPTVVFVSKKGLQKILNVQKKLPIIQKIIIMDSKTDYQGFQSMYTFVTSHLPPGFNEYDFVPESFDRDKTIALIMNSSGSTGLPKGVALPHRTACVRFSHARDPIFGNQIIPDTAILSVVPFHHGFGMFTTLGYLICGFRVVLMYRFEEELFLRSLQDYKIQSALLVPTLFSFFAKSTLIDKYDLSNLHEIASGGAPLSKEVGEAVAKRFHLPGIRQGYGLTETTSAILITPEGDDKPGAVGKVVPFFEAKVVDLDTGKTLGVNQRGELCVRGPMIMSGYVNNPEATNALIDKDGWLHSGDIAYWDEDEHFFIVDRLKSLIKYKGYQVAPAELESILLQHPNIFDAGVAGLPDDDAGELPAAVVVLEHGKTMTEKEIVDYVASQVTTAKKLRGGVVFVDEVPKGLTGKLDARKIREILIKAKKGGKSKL
T3 sequence (P11712 whole entry): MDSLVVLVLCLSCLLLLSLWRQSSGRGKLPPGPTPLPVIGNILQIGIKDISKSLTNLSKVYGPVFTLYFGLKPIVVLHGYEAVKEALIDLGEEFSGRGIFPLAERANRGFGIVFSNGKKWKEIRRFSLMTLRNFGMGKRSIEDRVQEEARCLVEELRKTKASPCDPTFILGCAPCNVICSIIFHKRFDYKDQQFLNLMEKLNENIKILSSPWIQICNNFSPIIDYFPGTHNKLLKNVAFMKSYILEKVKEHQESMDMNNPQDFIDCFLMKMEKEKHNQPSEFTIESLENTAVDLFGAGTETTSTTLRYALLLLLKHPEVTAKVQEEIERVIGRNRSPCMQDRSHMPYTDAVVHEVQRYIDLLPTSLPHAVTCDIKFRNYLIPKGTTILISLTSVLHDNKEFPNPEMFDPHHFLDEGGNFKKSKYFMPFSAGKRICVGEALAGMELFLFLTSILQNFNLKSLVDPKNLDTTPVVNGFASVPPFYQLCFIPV

## O=C(O)[C@H]1CSC(c2nc3cc(F)c(O)cc3s2)=N1 [5'-fluoroluciferin]
QuantiLum Luciferase [1]
  ATP requirement of the luciferase reaction compared with luciferin: saturated with ATP at a higher concentration
QuantiLum Luciferase [2]
  λmax of luminescence, blue-shifted from regular luciferin: approximately 25 nm
QuantiLum Luciferase [2]; listed as 5' fluoroluciferin
  λmax of luminescence, blue-shifted from regular luciferin: about 10 nm
QuantiLum Luciferase [3]; pH 6.900, MOPS
  Absolute Luminescence: 272,127 RLU
QuantiLum Luciferase [3]; pH 6.9 to 8.3
  change of luminescence over the pH range tested: about 40%
QuantiLum Luciferase [3]; pH 7.133, MOPS
  Absolute Luminescence: 325,337 RLU
QuantiLum Luciferase [3]; pH 7.296, MOPS
  Absolute Luminescence: 331,515 RLU
QuantiLum Luciferase [3]; pH 7.303, HEPES
  Absolute Luminescence: 323,456 RLU
QuantiLum Luciferase [3]; pH 7.499, MOPS
  Absolute Luminescence: 334,288 RLU
QuantiLum Luciferase [3]; pH 7.521, HEPES
  Absolute Luminescence: 360,308 RLU
QuantiLum Luciferase [3]; pH 7.673, Tricine
  Absolute Luminescence: 351,411 RLU
QuantiLum Luciferase [3]; pH 7.720, HEPES
  Absolute Luminescence: 378,927 RLU
QuantiLum Luciferase [3]; pH 7.883, Tricine
  Absolute Luminescence: 357,883 RLU
QuantiLum Luciferase [3]; pH 7.89 reagent
  decrease of luminescence when buffer changed from HEPES to tricine: 6%
QuantiLum Luciferase [3]; pH 7.892, HEPES
  Absolute Luminescence: 377,498 RLU
QuantiLum Luciferase [3]; pH 8.100, Tricine
  Absolute Luminescence: 357,041 RLU
QuantiLum Luciferase [3]; pH 8.327, Tricine
  Absolute Luminescence: 317,030 RLU

## COc1cc2nc(C3=NC(C(=O)O)CS3)sc2cc1OC (centres unmarked) [5,6-dimethoxyluciferin]
[4]
  luminescent signals with the panel of P450 enzymes: did not produce large luminescent signals with any P450
CYP4A11
  P450 activity / selectivity with the derivative as substrate: preferred substrate
CYP2C9
  P450 activity / selectivity with the derivative as substrate: preferred substrate
